Like-named read-outs stand apart in the source and are kept apart here.
Target: human NAMPT (Homo sapiens, UniProt P43490)
Assay: Human recombinant enzyme assay (NMN fluorescence biochemical assay, activation of NAMPT)
Experimental: Compounds described herein were assayed for their ability to stimulate the synthesis of nicotinamide mononucleotide (NMN) by the enzyme NAMPT. The human recombinant enzyme assay measures the activation of the enzyme activity by compounds using recombinant enzyme and substrates in a buffered cell-free system. The assay conditions closely mimic cellular environments. Dose responses were measured using an assay to detect the formation of nicotinamide mono-nucleotide. All experiments were performed in the 384-well format. […] Enzyme reactions were initiated with the addition of 10 μL of a solution containing the substrates. The final assay conditions were as follows: 6 nM human NAMPT, 2.5 mM ATP, 20 μM PRPP and 150 μM nicotinamide in 50 mM HEPES, pH 7.2, 1 mM DTT, 1 mM CHAPS 50 mM NaCl, 100 mM MgCl2. Following an incubation of 60 min at ambient temperature, 10 μL of 20% acetophenone in DMSO was added, followed by 10 μL of 2 M KOH and 40 μL of formic acid. The plates were read for fluorescence (Excitation/Emission=355 nm/460 nm) using an EnVision plate reader after 40 mins of incubation at ambient temperature.

[1] = Table A, human recombinant NAMPT, NMN formation, 60 min
[2] = Table A, human recombinant NAMPT, NMN formation, 60 min, read-out: EC50 Human

Sequence of human NAMPT (P43490 whole entry): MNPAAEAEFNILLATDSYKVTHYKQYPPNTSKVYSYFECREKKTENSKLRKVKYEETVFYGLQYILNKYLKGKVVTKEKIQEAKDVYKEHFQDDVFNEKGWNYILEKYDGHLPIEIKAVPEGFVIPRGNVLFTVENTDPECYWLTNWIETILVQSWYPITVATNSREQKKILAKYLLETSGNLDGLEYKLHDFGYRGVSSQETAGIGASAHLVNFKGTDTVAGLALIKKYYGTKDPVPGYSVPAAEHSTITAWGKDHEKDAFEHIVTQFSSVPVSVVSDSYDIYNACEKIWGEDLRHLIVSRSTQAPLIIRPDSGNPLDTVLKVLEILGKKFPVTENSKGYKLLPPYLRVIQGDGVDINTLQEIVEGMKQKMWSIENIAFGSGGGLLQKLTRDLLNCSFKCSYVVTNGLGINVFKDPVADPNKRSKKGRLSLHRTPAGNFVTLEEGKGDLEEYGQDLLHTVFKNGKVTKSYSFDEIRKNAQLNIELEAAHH

Row | Structure (SMILES) | AC1.4 Human [1] [µM] | EC50 [2] [µM] | EC50 [µM]
1 | COc1ccc(CNC(=O)NC2CC3(C2)CC(C(=O)NC2CC(c4ccncc4)C2)C3)cc1 (centres unmarked) [Compound 78, 6-(3-(4-methoxybenzyl)ureido)-N-(3-(pyridin-4-yl)cyclobutyl)spiro[3.3]heptane-2-carboxamide] | 4.4 | 45.2 | 
2 | COc1ccc(CNC(=O)NC2CC3(C2)CC(C(=O)NCC(C)(C)c2ccncc2)C3)cc1 (centres unmarked) [Compound 80, 6-(3-(4-methoxybenzyl)ureido)-N-(2-methyl-2-(pyridin-4-yl)propyl)spiro[3.3]heptane-2-carboxamide] | 2.4 | 45.4 | 
3 | COc1ccc(CNC(=O)N[C@H]2C[C@]3(CCN(C(=O)OC(C)(C)C)C3)C2)cc1 [Compound 81, tert-butyl (2r,4s)-2-(3-(4-methoxybenzyl)ureido)-6-azaspiro[3.4]octane-6-carboxylate] | 12.5 | 37.2 | 
4 | COc1ccc(CNC(=O)N[C@H]2C[C@@]3(CCN(C(=O)OC(C)(C)C)C3)C2)cc1 [Compound 82, tert-butyl (2s,4r)-2-(3-(4-methoxybenzyl)ureido)-6-azaspiro[3.4]octane-6-carboxylate] | 10.7 | 52.3 | 
5 | COc1ccc(CNC(=O)NC2CC3(C2)CC(C(=O)Nc2ccccc2)C3)cc1 (centres unmarked) [Compound 86, 6-(3-(4-methoxybenzyl)ureido)-N-phenylspiro[3.3]heptane-2-carboxamide] | 4.7 | 49.4 | 
6 | COc1ccc(CNC(=O)NC2CC3(C2)CC(C(=O)NCc2ccnc(OC(F)F)c2)C3)cc1 (centres unmarked) [Compound 88, N-((2-(difluoromethoxy)pyridin-4-yl)methyl)-6-(3-(4-methoxybenzyl)ureido)spiro[3.3]heptane-2-carboxamide] | 16.3 | 48.8 | 
7 | COc1ccc(CNC(=O)NC2CC3(C2)CC(C(=O)Nc2ccc4nncn4c2)C3)cc1 (centres unmarked) [Compound 89, N-([1,2,4]triazolo[4,3-a]pyridin-6-yl)-6-(3-(4-methoxybenzyl)ureido)spiro[3.3]heptane-2-carboxamide] | 10.3 | 33.7 | 
8 | COc1ccc(CNC(=O)NC2CC3(C2)CC(C(=O)N[C@@H]2CCc4ccccc42)C3)cc1 (stereo partly drawn) [Compound 91, (R)-N-(2,3-dihydro-1H-inden-1-yl)-6-(3-(4-methoxybenzyl)ureido)spiro[3.3]heptane-2-carboxamide] | 3.7 | 13 | 
9 | COc1ccc(CNC(=O)NC2CC3(C2)CC(C(=O)N[C@H]2CCc4ccccc42)C3)cc1 (stereo partly drawn) [Compound 92, (S)-N-(2,3-dihydro-1H-inden-1-yl)-6-(3-(4-methoxybenzyl)ureido)spiro[3.3]heptane-2-carboxamide] | 2.9 | 13.5 | 
10 | COc1ccc(CNC(=O)NC2CC3(C2)CC(C(=O)NC2CC(CO)c4ccccc42)C3)cc1 (centres unmarked) [Compound 93, N-(3-(hydroxymethyl)-2,3-dihydro-1H-inden-1-yl)-6-(3-(4-methoxybenzyl)ureido)spiro[3.3]heptane-2-carboxamide] | 6.3 | 34.8 | 
11 | COc1ccc(CNC(=O)NC2CC3(C2)CC(C(=O)NC2Cc4ccccc4C2O)C3)cc1 (centres unmarked) [Compound 94, N-(1-hydroxy-2,3-dihydro-1H-inden-2-yl)-6-(3-(4-methoxybenzyl)ureido)spiro[3.3]heptane-2-carboxamide] | 11.0 | 38.7 | 
12 | COc1ccc(CNC(=O)NC2CC3(C2)CC(C(=O)NC2Cc4ccccc4C2)C3)cc1 (centres unmarked) [Compound 95, N-(2,3-dihydro-1H-inden-2-yl)-6-(3-(4-methoxybenzyl)ureido)spiro[3.3]heptane-2-carboxamide] | 4.3 | 13.3 | 
13 | COc1ccc(CNC(=O)NC2CC3(C2)CC(C(=O)N[C@@H]2CCc4ccccc4C2)C3)cc1 (stereo partly drawn) [Compound 96, (R)-6-(3-(4-methoxybenzyl)ureido)-N-(1,2,3,4-tetrahydronaphthalen-2-yl)spiro[3.3]heptane-2-carboxamide] | 2.6 | 4.1 | 
14 | COc1ccc(CNC(=O)NC2CC3(C2)CC(C(=O)N2CCCc4cc(F)ccc42)C3)cc1 (centres unmarked) [Compound 101, 1-(6-(6-fluoro-1,2,3,4-tetrahydroquinoline-1-carbonyl)spiro[3.3]heptan-2-yl)-3-(4-methoxybenzyl)urea] | 0.2 | 2.7 | 
15 | COc1ccc(CNC(=O)NC2CC3(C2)CC(C(=O)N2CCCc4ccc(F)c(F)c42)C3)cc1 (centres unmarked) [Compound 102] | 8.0 | 33.3 | 
16 | COc1ccc(CNC(=O)NC2CC3(C2)CC(C(=O)N2CCCc4cc(OC(F)F)ccc42)C3)cc1 (centres unmarked) [Compound 103, 1-(6-(6-(difluoromethoxy)-1,2,3,4-tetrahydroquinoline-1-carbonyl)spiro[3.3]heptan-2-yl)-3-(4-methoxybenzyl)urea] | 0.3 | 7 | 

Row | Structure (SMILES) | AC1.4 Human [1] [µM] | EC50 [2] [µM] | EC50 [µM]
17 | COc1ccc(CNC(=O)NC2CC3(C2)CC(C(=O)N2CCCc4cc(C(F)(F)F)ccc42)C3)cc1 (centres unmarked) [Compound 104, 1-(4-methoxybenzyl)-3-(6-(6-(trifluoromethyl)-1,2,3,4-tetrahydroquinoline-1-carbonyl)spiro[3.3]heptan-2-yl)urea] | 0.5 | 10.7 | 
18 | COc1ccc(CNC(=O)NC2CC3(C2)CC(C(=O)N2CCCc4c(F)cccc42)C3)cc1 (centres unmarked) [Compound 105, 1-(6-(5-fluoro-1,2,3,4-tetrahydroquinoline-1-carbonyl)spiro[3.3]heptan-2-yl)-3-(4-methoxybenzyl)urea] | 0.1 | 2.2 | 
19 | COc1ccc(CNC(=O)NC2CC3(C2)CC(C(=O)N2CCCc4ccc(F)cc42)C3)cc1 (centres unmarked) [Compound 106, 1-(6-(7-fluoro-1,2,3,4-tetrahydroquinoline-1-carbonyl)spiro[3.3]heptan-2-yl)-3-(4-methoxybenzyl)urea] | 0.1 | 1.8 | 
20 | COc1ccc(CNC(=O)NC2CC3(C2)CC(C(=O)N2CCCc4cc(OC(F)(F)F)ccc42)C3)cc1 (centres unmarked) [Compound 107, 1-(4-methoxybenzyl)-3-(6-(6-(trifluoromethoxy)-1,2,3,4-tetrahydroquinoline-1-carbonyl)spiro[3.3]heptan-2-yl)urea] | 2.9 | 48.8 | 
21 | COc1ccc(CNC(=O)NC2CC3(C2)CC(C(=O)N2CCCc4ccc(C)cc42)C3)cc1 (centres unmarked) [Compound 108, 1-(4-methoxybenzyl)-3-(6-(7-methyl-1,2,3,4-tetrahydroquinoline-1-carbonyl)spiro[3.3]heptan-2-yl)urea] | 0.1 | 1.4 | 
22 | CC(C)(O)CN1CCN(C(=O)C2CC3(CC(NC(=O)NCc4ccc(F)cc4)C3)C2)CC1 (centres unmarked) [Compound 109, 1-(4-fluorobenzyl)-3-(6-(4-(2-hydroxy-2-methylpropyl)piperazine-1-carbonyl)spiro[3.3]heptan-2-yl)urea] | 3.5 | 10.2 | 
23 | COc1ccc(CNC(=O)NC2CC3(C2)CC(C(=O)N2CCN(C4COC4)CC2)C3)cc1 (centres unmarked) [Compound 111, 1-(4-methoxybenzyl)-3-(6-(4-(oxetan-3-yl)piperazine-1-carbonyl)spiro[3.3]heptan-2-yl)urea] | 1.0 | 26.8 | 
24 | COc1ccc(CNC(=O)NC2CC3(C2)CC(C(=O)N2CCN(CC4CC4)CC2)C3)cc1 (centres unmarked) [Compound 112, 1-(6-(4-(cyclopropylmethyl)piperazine-1-carbonyl)spiro[3.3]heptan-2-yl)-3-(4-methoxybenzyl)urea] | 3.0 | 46.9 | 
25 | COc1ccc(CNC(=O)NC2CC3(C2)CC(C(=O)N2CCN(C)CC2CO)C3)cc1 (centres unmarked) [Compound 113, 1-(6-(2-(hydroxymethyl)-4-methylpiperazine-1-carbonyl)spiro[3.3]heptan-2-yl)-3-(4-methoxybenzyl)urea] | 3.8 | 51.6 | 
26 | O=C(NCc1ccc(Cl)cc1)NC1CC2(C1)CC(NC(=O)c1ccccc1)C2 (centres unmarked) [Compound 114, N-(6-(3-(4-chlorobenzyl)ureido)spiro[3.3]heptan-2-yl)benzamide] | 11.0 | 33.1 | 
27 | O=C(Cc1ccccc1)NC1CC2(C1)CC(NC(=O)NCc1ccc(Cl)cc1)C2 (centres unmarked) [Compound 115, N-(6-(3-(4-chlorobenzyl)ureido)spiro[3.3]heptan-2-yl)-2-phenylacetamide] | 10.2 | 14.7 | 
28 | COc1ccc(CNC(=O)NC2CC3(C2)CN(S(=O)(=O)c2ccccc2Cl)C3)cc1 [Compound 116, 1-(2-((2-chlorophenyl)sulfonyl)-2-azaspiro[3.3]heptan-6-yl)-3-(4-methoxybenzyl)urea] | 8.0 |  | 51.3
29 | COc1ccc(CNC(=O)NC2CC3(C2)CN(S(=O)(=O)Cc2ccccc2Cl)C3)cc1 [Compound 117, 1-(2-((2-chlorobenzyl)sulfonyl)-2-azaspiro[3.3]heptan-6-yl)-3-(4-methoxybenzyl)urea] | 3.2 | 33.9 | 
30 | COc1ccc(CNC(=O)NC2CC3(C2)CN(S(=O)(=O)CCc2ccccc2Cl)C3)cc1 [Compound 118, 1-(2-((2-chlorophenethyl)sulfonyl)-2-azaspiro[3.3]heptan-6-yl)-3-(4-methoxybenzyl)urea] | 3.0 | 14.2 | 
31 | O=C(NCc1ccc(Cl)cc1)NC1CC2(C1)CC(N(Cc1ccccc1)Cc1ccccc1)C2 (centres unmarked) [Compound 119, 1-(4-chlorobenzyl)-3-(6-(dibenzylamino)spiro[3.3]heptan-2-yl)urea] | 3.8 | 16.7 | 

Reference: patent US20230348369A1 (Cytokinetics, Inc., priority 2020, published 2023)
